US20230024108A1, “ADENOSINE A2A RECEPTOR ANTAGONISTS” (Teon Therapeutics, Inc., priority 2019, published 2023)

Legend:
[1] = biological target: T1, A1AdoR (Homo sapiens, UniProt P30542); test: Adenosine receptor binding assay, A1 ([3H]-DPCPX); settings: ratio A1 vs A2A binding
T1 construct: purchased PerkinElmer ES-010-M400UA
T1 sequence (P30542 1-326): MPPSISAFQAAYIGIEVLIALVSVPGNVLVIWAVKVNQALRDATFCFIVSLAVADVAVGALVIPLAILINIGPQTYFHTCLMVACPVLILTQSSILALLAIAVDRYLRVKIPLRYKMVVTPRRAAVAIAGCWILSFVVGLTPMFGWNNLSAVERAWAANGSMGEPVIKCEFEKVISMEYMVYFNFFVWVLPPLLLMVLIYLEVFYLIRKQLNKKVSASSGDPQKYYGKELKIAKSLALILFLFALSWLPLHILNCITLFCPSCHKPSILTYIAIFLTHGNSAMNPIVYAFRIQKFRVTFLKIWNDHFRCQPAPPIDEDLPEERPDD
Experimental: (§1) Membranes prepared from CHO-K1 cells stably expressing Human AiAdoR (ES-010-M400UA), HEK-293 cells stably expressing human A2A AdoR (RBHA2AM400UA), HEK-293 cells stably expressing human A2B AdoR (ES-013-M400UA) and CHO-K1 cells stably expressing Human A3 AdoR (ES-012-M400UA) were purchased from PerkinElmer (Waltham, Mass., USA) and stored at −80° C. until use. Binding assays are performed using the radioligands. The final concentrations are as follows: [3H]-DPCPX (PerkinElmer, NET974001MC) at 1 nM for A1AdoR; [^3H]-CGS-21680 (PerkinElmer, NET1021250UC) at 6 nM for A2AAdoR, [3H]-DPCPX (PerkinElmer, NET974001MC) at 8 nM for A2BAdoR; [^3H]-HEMADO (ARC, Cat: ART1456) at 1 nM for A3AdoR. Testing compounds are diluted with DMSO to make 8-point 4-fold serial dilution. Nonspecific binding (Low control: LC) and total binding (High control: HC) are determined in the presence or absence of saturated cold ligand. Specific binding is calculated by subtracting nonspecific binding from total binding. All assays are performed in a final volume of 200 μl containing 1 μl of the test compound in DMSO, 100 μl of membrane preparation, and 99 μl of the radioligand in assay buffer (A1AdoR: 25 mM HEPES pH 7.4, 5 mM MgCl2, 1 mM CaCl2), 100 mM NaCl; A2AAdoR: 50 mM Tris HCl pH 7.4, 10 mM MgCl2, 1 mM EDTA; A2BAdoR: 50 mM HEPES pH 7.0, 5 mM MgCl2, 1 mM EDTA; A3AdoR: 25 HEPES pH 7.4, 10 mM MgCl2, 1 mM CaCl2), 0.5% BSA). The incubation is performed at room temperature with shaking at 300 rpm for 1 hour for A1AdoR, A2BAdoR and A3AdoR and 2 hours for A2AAdoR. After the incubation, the assay mixture is filtered through 96 GF/C filter plates (Perkin Elmer #6005174) using Perkin Elmer Filtermate Harvester, and then washed four times with ice-cold washing buffer (A1AdoR: 25 mM HEPES pH 7.4, 5 mM MgCl2, 1 mM CaCl2), 100 mM NaCl; A2AAdoR: 50 mM Tris HCl pH 7.4, 154 mM NaCl; A2BAdoR: 50 mM HEPES pH 6.5, 5 mM MgCl2, 1 mM EDTA, 0.2% BSA; A3AdoR: 50 mM Tris HCl pH 7.4). The filters are dried for 1 hour at 50° C. and [^3H] trapped on filter counted for radioactivity in Perkin Elmer Microscint 20 cocktail (#6013329) using Perkin Elmer MicroBeta2 Reader. The results are expressed as a percent inhibition of the control radioligand specific binding calculated using the following equation: % Inhibition=(1−(Assay well-Average_LC)/(Average_HC−Average_LC))×100%. Data are analyzed and IC50 is calculated using GraphPad Prism 5 and the model “log(inhibitor) vs. response—Variable slope”. The binding affinity of the compounds is determined by using the Cheng and Prusoff equation Ki=IC50/(1+[radioligand]/Kd).

[2] = biological target: T2, human A2A AdoR (Homo sapiens, UniProt P29274); test: Adenosine receptor binding assay, A2A ([3H]-CGS-21680); settings: membranes of HEK-293 cells expressing human A2A AdoR; read-out: hA2A IC50
T2 construct: purchased PerkinElmer RBHA2AM400UA
T2 sequence (P29274 whole entry): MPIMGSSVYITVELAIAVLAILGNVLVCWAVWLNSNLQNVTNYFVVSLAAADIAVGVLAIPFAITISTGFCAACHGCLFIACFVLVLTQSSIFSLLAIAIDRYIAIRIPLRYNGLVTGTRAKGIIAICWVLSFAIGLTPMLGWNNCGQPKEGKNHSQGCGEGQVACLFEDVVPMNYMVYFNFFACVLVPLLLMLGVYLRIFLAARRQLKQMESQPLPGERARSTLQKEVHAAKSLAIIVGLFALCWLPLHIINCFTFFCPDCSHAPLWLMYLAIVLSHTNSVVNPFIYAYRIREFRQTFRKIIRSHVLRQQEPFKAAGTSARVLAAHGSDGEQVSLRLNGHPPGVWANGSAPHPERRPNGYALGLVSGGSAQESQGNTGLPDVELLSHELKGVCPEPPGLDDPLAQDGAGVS
Experimental: as §1

Molecule | A1/A2A Selectivity [1] | IC50 [2]
2-(4-(4-(2-(5-amino-8-(methoxycarbonyl)-9-methyl-2-(pyridin-2-yl)-7H-pyrrolo[3,2-e][1,2,4]triazolo[1,5-c]pyrimidin-7-yl)ethyl)piperazin-1-yl)phenoxy)acetic acid | b (greater than 100 but less than or equal to 1000) | ≤ 20 nM
CC#Cc1nc2c3cc(C#N)n(CCN4CCN(c5ccc6onc(C)c6c5F)CC4)c3nc(N)n2n1 | a (greater than 1000) | ≤ 20 nM
Cc1c(C(=O)O)n(CCN2CCN(c3ncccn3)CC2)c2nc(N)n3nc(-c4ccccn4)nc3c12 [5-amino-9-methyl-2-(pyridin-2-yl)-7-(2-(4-(pyrimidin-2-yl)piperazin-1-yl)ethyl)-7H-pyrrolo[3,2-e][1,2,4]triazolo[1,5-c]pyrimidine-8-carboxylic acid] | b (greater than 100 but less than or equal to 1000) | ≤ 20 nM
CC#Cc1nc2c3ncn(CCN4CCN(c5ccc(OC(C)(C)C(=O)OC)cc5F)CC4)c3nc(N)n2n1 | a (greater than 1000) | ≤ 20 nM
CC#Cc1nc2c3ncn(CCN4CCN(c5ccc(OC(C)(C)C(=O)O)cc5)CC4)c3nc(N)n2n1 [2-(4-(4-(2-(5-amino-8-(prop-1-yn-1-yl)-3H-[1,2,4]triazolo[5,1-i]purin-3-yl)ethyl)piperazin-1-yl)phenoxy)-2-methylpropanoic acid] | b (greater than 100 but less than or equal to 1000) | 20 to 100 nM
COC(=O)c1c(C)c2c(nc(N)n3nc(-c4ccccn4)nc23)n1CCN1CCN(c2cc(C)ncc2F)CC1 [methyl 5-amino-7-(2-(4-(5-fluoro-2-methylpyridin-4-yl)piperazin-1-yl)ethyl)-9-methyl-2-(pyridin-2-yl)-7H-pyrrolo[3,2-e][1,2,4]triazolo[1,5-c]pyrimidine-8-carboxylate] | a (greater than 1000) | ≤ 20 nM
COC(=O)c1c(Cl)c2c(nc(N)n3nc(-c4ccccn4)nc23)n1CCN1CCN(c2cc(-c3ncco3)ccc2F)CC1 [methyl 5-amino-9-chloro-7-(2-(4-(2-fluoro-5-(oxazol-2-yl)phenyl)piperazin-1-yl)ethyl)-2-(pyridin-2-yl)-7H-pyrrolo[3,2-e][1,2,4]triazolo[1,5-c]pyrimidine-8-carboxylate] | a (greater than 1000) | ≤ 20 nM
NC(=O)c1c(Cl)c2c(nc(N)n3nc(-c4ccccn4)nc23)n1CCN1CCN(c2ccncc2)CC1 [5-amino-9-chloro-2-(pyridin-2-yl)-7-(2-(4-(pyridin-4-yl)piperazin-1-yl)ethyl)-7H-pyrrolo[3,2-e][1,2,4]triazolo[1,5-c]pyrimidine-8-carboxamide] | c (greater than 0 but less than or equal to 100) | ≤ 20 nM
Nc1nc2c(c(Cl)c(C(=O)O)n2CCN2CCN(c3ncccn3)CC2)c2nc(-c3ccccn3)nn12 [5-amino-9-chloro-2-(pyridin-2-yl)-7-(2-(4-(pyrimidin-2-yl)piperazin-1-yl)ethyl)-7H-pyrrolo[3,2-e][1,2,4]triazolo[1,5-c]pyrimidine-8-carboxylic acid] | c (greater than 0 but less than or equal to 100) | 20 to 100 nM
Nc1nc2c(c(Cl)c(C(=O)O)n2CCN2CCN(c3ccc(F)cc3F)CC2)c2nc(-c3ccccn3)nn12 [5-amino-9-chloro-7-(2-(4-(2,4-difluorophenyl)piperazin-1-yl)ethyl)-2-(pyridin-2-yl)-7H-pyrrolo[3,2-e][1,2,4]triazolo[1,5-c]pyrimidine-8-carboxylic acid] | b (greater than 100 but less than or equal to 1000) | ≤ 20 nM
NC(=O)c1c(Cl)c2c(nc(N)n3nc(-c4ccccn4)nc23)n1CCN1CCN(c2ccc(F)cc2F)CC1 | c (greater than 0 but less than or equal to 100) | ≤ 20 nM
Cc1cnc2c(c1)CN(CCn1c(C(N)=O)c(Cl)c3c1nc(N)n1nc(-c4ccccn4)nc31)CC2 [5-amino-9-chloro-7-(2-(3-methyl-7,8-dihydro-1,6-naphthyridin-6(5H)-yl)ethyl)-2-(pyridin-2-yl)-7H-pyrrolo[3,2-e][1,2,4]triazolo[1,5-c]pyrimidine-8-carboxamide] | c (greater than 0 but less than or equal to 100) | ≤ 20 nM
CNC(=O)c1c(Cl)c2c(nc(N)n3nc(-c4ccccn4)nc23)n1CCN1CCN(c2cc(-c3ncco3)ccc2F)CC1 | a (greater than 1000) | ≤ 20 nM
COC(=O)c1c(C)c2c(nc(N)n3nc(-c4ccccn4)nc23)n1CCN1CCCN(c2cc3c(C)noc3cc2F)CC1 [methyl 5-amino-7-(2-(4-(6-fluoro-3-methylbenzo[d]isoxazol-5-yl)-1,4-diazepan-1-yl)ethyl)-9-methyl-2-(pyridin-2-yl)-7H-pyrrolo[3,2-e][1,2,4]triazolo[1,5-c]pyrimidine-8-carboxylate] | b (greater than 100 but less than or equal to 1000) | ≤ 20 nM
Cc1noc2cc(F)c(N3CCN(CCn4c(C(N)=O)c(C)c5c4nc(N)n4nc(-c6ccccn6)nc54)CC3)cc12 [5-amino-7-(2-(4-(6-fluoro-3-methylbenzo[d]isoxazol-5-yl)piperazin-1-yl)ethyl)-9-methyl-2-(pyridin-2-yl)-7H-pyrrolo[3,2-e][1,2,4]triazolo[1,5-c]pyrimidine-8-carboxamide] | a (greater than 1000) | ≤ 20 nM
COC(=O)c1cc2c(nc(N)n3nc(-c4ccccn4)nc23)n1CCN1CCN(c2cc(-c3ncco3)ccc2F)CC1 [methyl 5-amino-7-(2-(4-(2-fluoro-5-(oxazol-2-yl)phenyl)piperazin-1-yl)ethyl)-2-(pyridin-2-yl)-7H-pyrrolo[3,2-e][1,2,4]triazolo[1,5-c]pyrimidine-8-carboxylate] | a (greater than 1000) | ≤ 20 nM
Cc1c(C(=O)O)n(CCN2CCN(c3ccc(C#N)cc3F)CC2)c2nc(N)n3nc(-c4ccccn4)nc3c12 [5-amino-7-(2-(4-(4-cyano-2-fluorophenyl)piperazin-1-yl)ethyl)-9-methyl-2-(pyridin-2-yl)-7H-pyrrolo[3,2-e][1,2,4]triazolo[1,5-c]pyrimidine-8-carboxylic acid] | b (greater than 100 but less than or equal to 1000) | ≤ 20 nM
N#Cc1ccc(N2CCN(CCn3c(C(=O)O)c(Cl)c4c3nc(N)n3nc(-c5ccccn5)nc43)CC2)c(F)c1 [5-amino-9-chloro-7-(2-(4-(4-cyano-2-fluorophenyl)piperazin-1-yl)ethyl)-2-(pyridin-2-yl)-7H-pyrrolo[3,2-e][1,2,4]triazolo[1,5-c]pyrimidine-8-carboxylic acid] | b (greater than 100 but less than or equal to 1000) | ≤ 20 nM
Nc1nc2c(ncn2CCN2CCc3ncc(C4COC4)cc3C2)c2nc(-c3ccccn3)nn12 [3-(2-(3-(oxetan-3-yl)-7,8-dihydro-1,6-naphthyridin-6(5H)-yl)ethyl)-8-(pyridin-2-yl)-3H-[1,2,4]triazolo[5,1-i]purin-5-amine] | c (greater than 0 but less than or equal to 100) | 20 to 100 nM
